Laboratory results as given in the NIST ThermoML archive (doi:10.1016/j.jct.2013.11.021).

What was measured:
[1] = mn = molality of the nth substance listed, in mol/kg; conditions: 101 kPa, Liquid; for speed of sound: Sing-around technique in a fixed-path interferometer; for mass density: Vibrating tube method
[2] = 313.15 K; 101 kPa; Liquid; Sing-around technique in a fixed-path interferometer

O=C[O-].[NH3+]CCCO [3-hydroxypropylammonium formate] + O
[1]
Conditions	mass density, 298.15 K [kg/m3]	mass density, 303.15 K [kg/m3]	mass density, 308.15 K [kg/m3]	mass density, 313.15 K [kg/m3]	mass density, 318.15 K [kg/m3]	speed of sound, 298.15 K [m/s]	speed of sound, 303.15 K [m/s]	speed of sound, 308.15 K [m/s]	speed of sound, 313.15 K [m/s]	speed of sound, 318.15 K [m/s]
m1 = 0.1	998.637	997.222	995.623	993.757	991.751	1501.7	1513.4	1523.7	1532.4	1539.7
m1 = 0.2	1000.2	998.76	997.068	995.252	993.147	1507.7	1519	1528.9	1538.2	1545.2
m1 = 0.3	1001.76	1000.3	998.625	996.753	994.624	1513.5	1524.4	1533.9	1542	1548.6
m1 = 0.4	1003.33	1001.84	999.944	998.26	996.183	1519.7	1530.3	1539.6	1547.4	1553.8

O=C[C@H](O)[C@@H](O)[C@H](O)[C@H](O)CO [D-glucose] + O
[1]
Conditions	mass density, 298.15 K [kg/m3]	mass density, 303.15 K [kg/m3]	mass density, 308.15 K [kg/m3]	mass density, 313.15 K [kg/m3]	mass density, 318.15 K [kg/m3]	speed of sound, 298.15 K [m/s]	speed of sound, 303.15 K [m/s]	speed of sound, 308.15 K [m/s]	speed of sound, 313.15 K [m/s]	speed of sound, 318.15 K [m/s]
m1 = 0.04842	1000.33	998.923	997.289	995.463	993.441	1499.3	1512.1	–	1531.8	–
m1 = 0.06669	1001.56	1000.14	998.498	996.672	994.638	–	1513.2	1523.1	1532.9	1539.7
m1 = 0.0976	1003.62	1002.18	1000.53	998.7	996.647	1502.3	1515.1	1525	1534.6	1541.4
m1 = 0.1066	1004.22	1002.77	1001.12	999.285	997.23	1502.9	1515.6	1525.5	1535.1	1541.9
m1 = 0.1235	1005.32	1003.87	1002.21	1000.38	998.311	1504	1516.7	1526.6	1536.1	1542.8
m1 = 0.1462	–	1005.34	1003.67	1001.84	999.761	1505.4	1518.1	–	1537.3	–

O=C[C@H](O)[C@H](O)[C@H](O)CO [D-ribose] + O
[1]
Conditions	mass density, 298.15 K [kg/m3]	mass density, 303.15 K [kg/m3]	mass density, 308.15 K [kg/m3]	mass density, 313.15 K [kg/m3]	mass density, 318.15 K [kg/m3]	speed of sound, 298.15 K [m/s]	speed of sound, 303.15 K [m/s]	speed of sound, 308.15 K [m/s]	speed of sound, 313.15 K [m/s]	speed of sound, 318.15 K [m/s]
m1 = 0.0504	999.789	998.382	996.751	994.911	992.887	1498.8	1511.5	1521.3	1531.3	1538.2
m1 = 0.06883	1000.78	999.363	997.73	995.882	993.852	1499.8	1512.3	1522.2	1532.1	1539
m1 = 0.08626	1001.7	1000.29	998.651	996.793	994.758	1500.7	1513.1	1523	1532.9	1539.7
m1 = 0.1107	1003	1001.58	999.932	998.065	996.017	1502	1514.3	1524.1	1534	1540.7
m1 = 0.136	1004.33	1002.89	1001.25	999.37	997.311	1503.3	1515.5	1525.3	1535.1	1541.8
m1 = 0.1566	1005.39	1003.96	1002.31	1000.41	998.355	1504.4	1516.5	1526.3	1536	1542.7

O [water]
Conditions	speed of sound [m/s]
[2]	1528.9
